Assays:
Assay in all cases: two-electrode voltage clamp of Xenopus oocytes, steady-state current
Conditions in all cases: ND96 buffer pH 7.6, -60 mV; Fe(III) complex of DMA
[1] = test system: Hv-Zm-Hv; format: cell-based, Hordeum vulgare; Zea mays
[2] = biological target: HvYS1 (Hordeum vulgare, UniProt Q2PGC4); format: cell-based
[3] = test system: Zm-Hv-Zm; format: cell-based, Zea mays; Hordeum vulgare
[4] = biological target: T1, ZmYS1 (Zea mays, UniProt Q9AY27); format: cell-based
T1 sequence (Q9AY27 1-682): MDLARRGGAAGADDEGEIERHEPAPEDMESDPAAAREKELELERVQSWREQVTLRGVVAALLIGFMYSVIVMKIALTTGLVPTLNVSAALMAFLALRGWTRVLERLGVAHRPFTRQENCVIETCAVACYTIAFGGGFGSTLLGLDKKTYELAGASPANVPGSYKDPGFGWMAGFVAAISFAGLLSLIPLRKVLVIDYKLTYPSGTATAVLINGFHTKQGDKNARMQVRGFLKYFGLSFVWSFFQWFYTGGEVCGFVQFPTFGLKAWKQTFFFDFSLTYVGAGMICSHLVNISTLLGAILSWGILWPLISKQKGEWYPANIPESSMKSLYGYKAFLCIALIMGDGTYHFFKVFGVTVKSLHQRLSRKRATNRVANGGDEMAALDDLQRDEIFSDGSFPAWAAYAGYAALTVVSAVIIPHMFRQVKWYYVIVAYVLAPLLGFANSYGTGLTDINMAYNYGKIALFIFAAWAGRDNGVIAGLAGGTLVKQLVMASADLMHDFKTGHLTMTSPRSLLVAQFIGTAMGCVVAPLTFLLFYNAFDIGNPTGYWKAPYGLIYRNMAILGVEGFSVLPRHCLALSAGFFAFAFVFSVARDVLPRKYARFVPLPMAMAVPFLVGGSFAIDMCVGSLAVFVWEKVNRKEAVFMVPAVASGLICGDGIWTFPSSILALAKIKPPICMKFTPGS

HvYS1, sequence (Q2PGC4 1-678): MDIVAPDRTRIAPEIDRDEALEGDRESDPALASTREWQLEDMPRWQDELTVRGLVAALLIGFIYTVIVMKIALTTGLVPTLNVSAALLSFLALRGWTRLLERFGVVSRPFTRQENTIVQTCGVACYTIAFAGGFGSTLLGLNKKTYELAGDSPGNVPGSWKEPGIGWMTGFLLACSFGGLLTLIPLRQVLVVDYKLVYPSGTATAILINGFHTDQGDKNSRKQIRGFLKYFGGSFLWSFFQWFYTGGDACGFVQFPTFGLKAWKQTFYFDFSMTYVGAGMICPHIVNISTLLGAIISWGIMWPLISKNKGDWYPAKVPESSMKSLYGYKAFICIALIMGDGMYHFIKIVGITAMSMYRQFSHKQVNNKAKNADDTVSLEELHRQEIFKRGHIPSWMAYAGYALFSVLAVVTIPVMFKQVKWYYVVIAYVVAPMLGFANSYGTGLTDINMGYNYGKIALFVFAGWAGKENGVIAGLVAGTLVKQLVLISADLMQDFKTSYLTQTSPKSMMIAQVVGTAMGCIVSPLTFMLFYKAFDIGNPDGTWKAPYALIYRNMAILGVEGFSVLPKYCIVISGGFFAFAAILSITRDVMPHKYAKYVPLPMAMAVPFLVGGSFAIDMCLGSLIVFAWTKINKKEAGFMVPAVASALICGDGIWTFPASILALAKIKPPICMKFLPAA

Km [1]: 60.8 µM
Km [2]: 71.8 µM
Km [3]: 44.2 µM
Km [4]: 65.3 µM
SMILES: O=C([O-])[C@H](CCN1CC[C@H]1C(=O)[O-])NCC[C@H](O)C(=O)[O-].[Fe+3] [Fe(III)-DMA]

From paper PMC5216903 (Febs Letters, 2016)
